One assay concerns HCT116. Nature of the assay: cells. To be noted: for IC50: read-out: IC50 HCT116. In kind it is cell-based, human. The procedure, abridged: (§1)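 Compound exposure ran 72 h at six concentrations (0–1000 nM or 0–10000 nM, duplicate) on cells plated at 30,000 cells/mL in 10% FBS DMEM. A closing 37 °C incubation took 15 min (HCT116) or 5 min (L1210).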
In a further assay the test system is L1210. Nature of the assay: cells. The class given is cell-based, mouse. Summed up: as §1
[1] abbreviates: vinblastine-sensitive cell lines.

Each structure is given as a SMILES string. Read-outs that look alike come from different tables or passages of the source.

For the molecule `CC[C@]1(NC(=O)c2cccc(N3CCOCC3)c2)C[C@H]2CN(CCc3c([nH]c4ccccc34)[C@@](C(=O)OC)(c3cc4c(cc3OC)N(C)[C@H]3[C@@](O)(C(=O)OC)[C@H](OC(C)=O)[C@]5(CC)C=CCN6CC[C@]43[C@@H]65)C2)C1` [Compound 106], the IC50 (commonly the midpoint of a concentration-inhibition curve) worked out at 2.8 nM in the assay on HCT116 (Table 2) and 4.8 nM in the assay with L1210 (Table 2).

On to `CCC1(NC(=O)c2ccc(C)c(NC(=O)c3ccccc3)c2)CC2CN(CCc3c([nH]c4ccccc34)C(C(=O)OC)(c3cc4c(cc3OC)N(C)C3C(O)(C(=O)OC)C(OC(C)=O)C5(CC)C=CCN6CCC43C65)C2)C1` (centres unmarked) [Compound 107], for which the IC50 in the assay with HCT116 (Table 2) worked out at 7.6 nM; in the assay with L1210 (Table 2), 30 nM.

Take `CCC1(NC(=O)C=Cc2ccccc2)CC2CN(CCc3c([nH]c4ccccc34)C(C(=O)OC)(c3cc4c(cc3OC)N(C)C3C(O)(C(=O)OC)C(OC(C)=O)C5(CC)C=CCN6CCC43C65)C2)C1` (centres unmarked) [Compound 108]: the IC50 in the assay with HCT116 (Table 3) amounted to 0.9 nM; in the assay on L1210 (Table 3), 0.8 nM.

For the molecule `CCC1(NC(=O)C=Cc2ccncc2)CC2CN(CCc3c([nH]c4ccccc34)C(C(=O)OC)(c3cc4c(cc3OC)N(C)C3C(O)(C(=O)OC)C(OC(C)=O)C5(CC)C=CCN6CCC43C65)C2)C1` (centres unmarked) [Compound 109], the IC50 in the assay with HCT116 (Table 3) turned out to be 0.7 nM; in the assay with L1210 (Table 3) it was 0.6 nM.

In the case of `CCC1(NC(=O)C=Cc2cccnc2)CC2CN(CCc3c([nH]c4ccccc34)C(C(=O)OC)(c3cc4c(cc3OC)N(C)C3C(O)(C(=O)OC)C(OC(C)=O)C5(CC)C=CCN6CCC43C65)C2)C1` (centres unmarked) [Compound 110], the 50% inhibitory concentration (IC50) came to 5.7 nM in the assay on HCT116 (Table 3) and 5.9 nM with L1210 (Table 3).

Regarding `CC[C@]1(NC(=O)/C=C/c2ccccn2)C[C@H]2CN(CCc3c([nH]c4ccccc34)[C@@](C(=O)OC)(c3cc4c(cc3OC)N(C)[C@H]3[C@@](O)(C(=O)OC)[C@H](OC(C)=O)[C@]5(CC)C=CCN6CC[C@]43[C@@H]65)C2)C1` [Compound 111], the IC50 in the assay with HCT116 (Table 3) and with L1210 (Table 3) was 0.7 nM in each case.

Consider `CC[C@]1(NC(=O)/C=C/c2ccoc2)C[C@H]2CN(CCc3c([nH]c4ccccc34)[C@@](C(=O)OC)(c3cc4c(cc3OC)N(C)[C@H]3[C@@](O)(C(=O)OC)[C@H](OC(C)=O)[C@]5(CC)C=CCN6CC[C@]43[C@@H]65)C2)C1` [Compound 112], for which the IC50 in the assay on HCT116 (Table 3) and with L1210 (Table 3) was 0.7 nM each time.

For the molecule `CC[C@]1(NC(=O)/C=C/c2ccco2)C[C@H]2CN(CCc3c([nH]c4ccccc34)[C@@](C(=O)OC)(c3cc4c(cc3OC)N(C)[C@H]3[C@@](O)(C(=O)OC)[C@H](OC(C)=O)[C@]5(CC)C=CCN6CC[C@]43[C@@H]65)C2)C1` [Compound 113], the IC50 in the assay with HCT116 (Table 3) and with L1210 (Table 3) was 1.3 nM each time.

Consider `CC[C@]1(NC(=O)/C=C/c2ccsc2)C[C@H]2CN(CCc3c([nH]c4ccccc34)[C@@](C(=O)OC)(c3cc4c(cc3OC)N(C)[C@H]3[C@@](O)(C(=O)OC)[C@H](OC(C)=O)[C@]5(CC)C=CCN6CC[C@]43[C@@H]65)C2)C1` [Compound 114], for which the results for the IC50 with HCT116 (Table 3) and in the assay on L1210 (Table 3) were 0.6 nM and 0.5 nM, respectively.

Take `CCC1(NC(=O)c2cccc3ccccc23)CC2CN(CCc3c([nH]c4ccccc34)C(C(=O)OC)(c3cc4c(cc3OC)N(C)C3C(O)(C(=O)OC)C(OC(C)=O)C5(CC)C=CCN6CCC43C65)C2)C1` (centres unmarked) [Compound 115]: the IC50 in the assay on HCT116 (Table 4) is 65 nM; with L1210 (Table 4), 60 nM. Moreover, the “potency relative to vinblastine (less potent / reduced activity)” value in the assay with HCT116 (setting [1]) is on record as “roughly 10 fold”.

For the molecule `CCC1(NC(=O)c2ccc3ccccc3c2)CC2CN(CCc3c([nH]c4ccccc34)C(C(=O)OC)(c3cc4c(cc3OC)N(C)C3C(O)(C(=O)OC)C(OC(C)=O)C5(CC)C=CCN6CCC43C65)C2)C1` (centres unmarked) [Compound 116], the IC50 with HCT116 (Table 4) was 2.3 nM; with L1210 (Table 4) it was 1.9 nM. Further, the “potency relative to vinblastine (more potent)” value with HCT116 (setting [1]) is given as “approximately 3 fold”.

In the case of `CCC1(NC(=O)c2ccc3cc(N)ccc3c2)CC2CN(CCc3c([nH]c4ccccc34)C(C(=O)OC)(c3cc4c(cc3OC)N(C)C3C(O)(C(=O)OC)C(OC(C)=O)C5(CC)C=CCN6CCC43C65)C2)C1` (centres unmarked) [Compound 117], the figures for the IC50 in the assay with HCT116 (Table 4) and with L1210 (Table 4) were 0.8 nM and 0.7 nM, respectively.

These data come from patent US10689381B2 (priority 2017, dated 2020).
